In PubChem BioAssay AID1963830 (Molecular Pharmacology Branch, DTP, NCI, 2024):
Values joined by “and” are separate entries in the source; they are usually repeats but may differ in a detail not shown here. Equal values may be shown once.

System: 922993-354-T-J3-PDC complex spheroid viability
Assay: Anticancer human tumor 922993-354-T-J3-PDC patient-derived endometrial carcinoma cell line growth inhibition [POLQ]
Conditions: for viability, T/C: stronger effect = lower value
Procedure: Multicellular complex tumor spheroid response to Polymerase (POL) inhibitors (novobiocin, ART-558, RP6685) in combination with a variety of drugs and investigational agents in selected tumor cell lines
The POL inhibitors (novobiocin, ART-558, and RP6685) were evaluated both individually and in combination with standard of care and investigational anticancer small molecules within a complex spheroid model of solid tumors. . Complex spheroids include a stromal component modeled by human endothelial cells (HUVEC) and fibroblasts modeled by human mesenchymal stem cells (MSCs). The concentration ranges selected for each drug and investigational agent were based upon clinically achievable concentrations if the clinical Cmax of the agent was known.
Compounds. The drugs and investigational agents: novobiocin (NSC847541), ART-558 (NSC835418), RP-6685 (NSC848927), peposertib (NSC802822), ceralasertib (NSC780249), elimusertib (NSC800525), camonsertib (NSC841442), AZD-1390 (NSC803789), olaparib (NSC753686), talazoparib (NSC767125), rucaparib (NSC756644), sotorasib (NSC818433), MRTX-1133 (NSC836407), SN-38 (NSC673596), topotecan (NSC609699), epotoside (NSC141540), doxorubicin (NSC123127), gemcitabine (NSC613327), 5-fluorouracil (NSC19893), paclitaxel (NSC125973), vemurafenib (NSC761431), MSA-2 (NSC828583), SN-011 (NSC837082), adavosertib (NSC754352), prexasertib (NSC758257), carboplatin (NSC241240) and oxaliplatin (NSC266046), were obtained from the National Cancer Institute (NCI) Developmental Therapeutics Program Chemical Repository (21). The FDA-approved anticancer drug set is available from the Developmental Therapeutics Program at https://dtp.cancer.gov/organization/dscb/obtaining/. […] The stock solutions were prepared in dimethyl sulfoxide (DMSO, Sigma-Aldrich, St. Louis, MO, cat. D2650), except for the platinum compounds which were prepared in saline (Quality Biological, Gaithersburg, MD, cat. 114-055-101), at 800-fold the tested concentration and stored at -70 degrees C prior to their use. All drugs and investigational agents were tested over a range starting from a high concentration at or near the clinical Cmax and decreasing in half-log increments. If the clinical Cmax for an agent had not been determined, the highest concentration tested was 10 microM, except for SN-38, which was tested at a high concentration of 1 microM.
Cell Culture. All cells were maintained in an incubator at 37 degrees C and 5% CO2 with 95% humidity. The PDC lines were cultured according to standard operating procedures established by the NCI PDMR (https://pdmr.cancer.gov). Table 3 of the manuscript, lists the cell lines along with the number of the three cell types plated to form the mct-spheroids and media for tumor cell growth. After thawing, all PDC lines, except 997537-175-T-J1-PDC and 415267-285-R-J2-PDC, were cultured in Matrigel-coated flasks prepared with a working solution of 1X Ham's F-12 nutrient mix, without supplementation (Thermo Fisher Scientific, cat. 11765054), 100 U/mL penicillin-streptomycin (Thermo Fisher Scientific, cat. 15140122), and 2.5% Matrigel (Corning Inc., Corning, NY, cat. 354248) for the first three passages. The two PDC lines 997537-175-T-J1-PDC and 415267-285-R-J2-PDC were cultured on uncoated flasks. The 857933-349-R-J2-PDC line was cultured in 6C/Colon 1B media containing advanced DMEM/F-12 (Thermo Fisher Scientific, cat. 12634028), 10 mM HEPES (Thermo Fisher Scientific, cat. 15630080), 1X GlutaMAX supplement (Thermo Fisher Scientific, cat. 35050061), 0.1 mg/mL primocin (InvivoGen, San Diego, CA, cat. ant-pm-2), 10% defined fetal bovine serum, heat inactivated (HyClone Laboratories Inc., Logan, UT, cat. SH30070.03HI), 50% L-WRN conditioned media (ATCC, cat. CRL-3276), 1.25 mM N-Acetyl-L-cysteine (Sigma-Aldrich, cat. A9165), 10 mM nicotinamide (Sigma-Aldrich, cat. N0636), 1X B-27 supplement (Thermo Fisher Scientific, cat. 17504044), 1X N-2 supplement (Thermo Fisher Scientific, cat. […]

[1] = curve of first compound, second compound 0.0316 µM
[2] = curve of first compound, second compound 0.1 µM
[3] = curve of first compound, second compound 0.316 µM
[4] = curve of first compound, second compound 1 µM
[5] = curve of first compound, second compound 3.16 µM
[6] = curve of first compound, second compound 10 µM
[7] = second compound 0.0316 µM, first compound 0.0316 µM
[8] = second compound 0.0316 µM, first compound 0.1 µM
[9] = second compound 0.0316 µM, first compound 0.316 µM
[10] = second compound 0.0316 µM, first compound 1 µM
[11] = second compound 0.0316 µM, first compound 3.16 µM
[12] = second compound 0.0316 µM, first compound 10 µM
[13] = second compound 0.1 µM, first compound 0.0316 µM
[14] = second compound 0.1 µM, first compound 0.1 µM
[15] = second compound 0.1 µM, first compound 0.316 µM
[16] = second compound 0.1 µM, first compound 1 µM
[17] = second compound 0.1 µM, first compound 3.16 µM
[18] = second compound 0.1 µM, first compound 10 µM
[19] = second compound 0.316 µM, first compound 0.0316 µM
[20] = second compound 0.316 µM, first compound 0.1 µM
[21] = second compound 0.316 µM, first compound 0.316 µM
[22] = second compound 0.316 µM, first compound 1 µM
[23] = second compound 0.316 µM, first compound 3.16 µM
[24] = second compound 0.316 µM, first compound 10 µM
[25] = second compound 1 µM, first compound 0.0316 µM
[26] = second compound 1 µM, first compound 0.1 µM
[27] = second compound 1 µM, first compound 0.316 µM
[28] = second compound 1 µM, first compound 1 µM
[29] = second compound 1 µM, first compound 3.16 µM
[30] = second compound 1 µM, first compound 10 µM
[31] = second compound 3.16 µM, first compound 0.0316 µM
[32] = second compound 3.16 µM, first compound 0.1 µM
[33] = second compound 3.16 µM, first compound 0.316 µM
[34] = second compound 3.16 µM, first compound 1 µM
[35] = second compound 3.16 µM, first compound 3.16 µM
[36] = second compound 3.16 µM, first compound 10 µM
[37] = second compound 10 µM, first compound 0.0316 µM
[38] = second compound 10 µM, first compound 0.1 µM
[39] = second compound 10 µM, first compound 0.316 µM
[40] = second compound 10 µM, first compound 1 µM
[41] = second compound 10 µM, first compound 3.16 µM
[42] = second compound 10 µM, first compound 10 µM
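Also: spheroids exposed to the agents for one week.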
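For viability, T/C in this document: 100% = DMSO vehicle control wells.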

O=c1[nH]cc(F)c(=O)[nH]1 + COC1C(OC(N)=O)C(O)C(Oc2ccc3c(O)c(NC(=O)c4ccc(O)c(CC=C(C)C)c4)c(=O)oc3c2C)OC1(C)C
IC50 [1]: 2520 nM
IC50 [2]: 2290 nM
IC50 [3]: 2150 nM
IC50 [4]: 2250 nM
IC50 [5]: 2090 nM
IC50 [6]: 2100 nM
viability, T/C [7]: 109%
viability, T/C [8]: 100%
viability, T/C [9]: 108%
viability, T/C [10]: 108%
viability, T/C [11]: 36.1%
viability, T/C [12]: 16%
viability, T/C [13]: 105%
viability, T/C [14]: 107%
viability, T/C [15]: 95.2%
viability, T/C [16]: 99.6%
viability, T/C [17]: 30.7%
viability, T/C [18]: 14.9%
viability, T/C [19]: 105%
viability, T/C [20]: 94.9%
viability, T/C [21]: 105%
viability, T/C [22]: 87.9%
viability, T/C [23]: 30.8%
viability, T/C [24]: 13.1%
viability, T/C [25]: 108%
viability, T/C [26]: 98.9%
viability, T/C [27]: 106%
viability, T/C [28]: 107%
viability, T/C [29]: 26.9%
viability, T/C [30]: 13.1%
viability, T/C [31]: 91.3%
viability, T/C [32]: 96.7%
viability, T/C [33]: 108%
viability, T/C [34]: 88.2%
viability, T/C [35]: 28.2%
viability, T/C [36]: 13.8%
viability, T/C [37]: 94.5%
viability, T/C [38]: 91.9%
viability, T/C [39]: 86%
viability, T/C [40]: 83.7%
viability, T/C [41]: 31.6%
viability, T/C [42]: 18.1%

COc1cc2cc(C(=O)CCC(=O)O)sc2cc1OC + Nc1ccc(C#CCN(C(=O)Cc2ncc(C(F)(F)F)cc2C(F)(F)F)c2ccc(F)cc2)nn1
IC50 [1]: > 10000 nM
IC50 [2]: > 10000 nM
IC50 [3]: > 10000 nM
IC50 [4]: > 10000 nM
IC50 [5]: > 10000 nM
IC50 [6]: > 10000 nM
viability, T/C [7]: 104%
viability, T/C [8]: 105%
viability, T/C [9]: 108%
viability, T/C [10]: 102%
viability, T/C [11]: 109%
viability, T/C [12]: 84.6%
viability, T/C [13]: 108%
viability, T/C [14]: 105%
viability, T/C [15]: 103%
viability, T/C [16]: 95.6%
viability, T/C [17]: 104%
viability, T/C [18]: 78.9%
viability, T/C [19]: 102%
viability, T/C [20]: 103%
viability, T/C [21]: 98.3%
viability, T/C [22]: 97.7%
viability, T/C [23]: 102%
viability, T/C [24]: 82.1%
viability, T/C [25]: 102%
viability, T/C [26]: 99.6%
viability, T/C [27]: 108%
viability, T/C [28]: 102%
viability, T/C [29]: 103%
viability, T/C [30]: 81%
viability, T/C [31]: 99%
viability, T/C [32]: 102%
viability, T/C [33]: 98.5%
viability, T/C [34]: 104%
viability, T/C [35]: 105%
viability, T/C [36]: 84%
viability, T/C [37]: 94.6%
viability, T/C [38]: 95.2%
viability, T/C [39]: 97.7%
viability, T/C [40]: 95%
viability, T/C [41]: 104%
viability, T/C [42]: 78.8%

COc1ccc([C@@H](O)c2cc(-c3ncnc4cc(N5CCOCC5)ccc34)c(F)cc2Cl)nn1
viability, T/C (compound 0.0316 µM): 95.5% and 103% and 107%
viability, T/C (compound 0.1 µM): 84.6% and 101% and 89.6%
viability, T/C (compound 0.316 µM): 99.2% and 98.3% and 96.1%
viability, T/C (compound 1 µM): 92.9% and 97.3% and 99.2%
viability, T/C (compound 3.16 µM): 78.1% and 90.2% and 83.4%
viability, T/C (compound 10 µM): 57% and 75% and 62.1%
IC50 (curve of compound): > 10000 nM
